The assay addresses HSP90 (Homo sapiens, UniProt P07900). The assay is described as follows: HSP90 inhibition (HSP90 IC50). It counts as biochemical.
With `COc1cccc(C(=O)N[C@H]2C[C@H]3CC[C@@H](C2)N3c2ccc(C(=O)NCc3c(F)cc(F)cc3F)cn2)c1C` [6-[3-endo-({[2-methyl-3-(methyloxy)phenyl]carbonyl}amino)-8-azabicyclo[3.2.1]oct-8-yl]-N-[(2,4,6-trifluorophenyl)methyl]pyridine-3-carboxamide], the IC50 is under 500 nM.

Turning to `CCC(CC)Nc1cc(C(=O)N[C@H]2C[C@H]3CC[C@@H](C2)N3c2ccc(C(=O)C3CC3)cn2)c(F)cc1C(N)=O` [N-{8-[5-(cyclopropylcarbonyl)pyridin-2-yl]-8-azabicyclo[3.2.1]oct-3-endo-yl}-5-[(1-ethylpropyl)amino]-2-fluorobenzene-1,4-dicarboxamide], the IC50 was under 500 nM.

Molecule `Cc1cc(C(=O)N[C@H]2C[C@H]3CC[C@@H](C2)N3c2ccc(C(N)=O)cn2)c(C)cc1C(N)=O` [N-{8-[5-(aminocarbonyl)pyridin-2-yl]-8-azabicyclo[3.2.1]oct-3-endo-yl}-2,5-dimethylbenzene-1,4-dicarboxamide] had an IC50 of under 500 nM.

In the case of `CCCOCCCNC(=O)c1ccc(N2[C@@H]3CC[C@H]2C[C@@H](NC(=O)c2cccc(OC)c2C)C3)nc1` [6-[3-endo-({[2-methyl-3-(methyloxy)phenyl]carbonyl}amino)-8-azabicyclo[3.2.1]oct-8-yl]-N-[3-endo-(propyloxy)propyl]pyridine-3-carboxamide], the IC50 was 500 to 999 nM.

As to `C[C@H](NC(=O)c1ccc(N2C3CCC2CC(NC(=O)c2ccc(C(N)=O)c(N[C@H]4CC[C@H](O)CC4)c2)C3)nc1)c1ccc(N2CCN(C)CC2)cc1` (stereo partly drawn) [2-[(4-hydroxycyclohexyl)amino]-N4-(8-{5-[({(1S)-1-[4-(4-methylpiperazin-1-yl)phenyl]ethyl}amino)carbonyl]pyridin-2-yl}-8-azabicyclo[3.2.1]oct-3-endo-yl)benzene-1,4-dicarboxamide], the IC50 was under 500 nM.

In the case of `COc1cccc(C(=O)N[C@H]2C[C@H]3CC[C@@H](C2)N3c2ccc(C(=O)NCCN3CCOCC3)cn2)c1C` [6-[3-endo-({[2-methyl-3-(methyloxy)phenyl]carbonyl}amino)-8-azabicyclo[3.2.1]oct-8-yl]-N-(2-morpholin-4-ylethyl)pyridine-3-carboxamide], the IC50 lay within 1000 to 2000 nM.

`COc1cccc(C(=O)N[C@H]2C[C@H]3CC[C@@H](C2)N3c2ccc(C(N)=O)cn2)c1CCCCN(C)C` [6-(3-endo[({2-[4-(dimethylamino)butyl]-3-(methyloxy)phenyl}carbonyl)amino]-8-azabicyclo[3.2.1]oct-8-yl}pyridine-3-carboxamide]: the IC50 lay within 1000 to 2000 nM.

Take `CCC(CC)Nc1cc(C(=O)N[C@H]2C[C@H]3CC[C@@H](C2)N3c2ccc(C(=O)C3CC3)cn2)c(Br)cc1C(N)=O` [2-bromo-N-{8-[5-(cyclopropylcarbonyl)pyridin-2-yl]-8-azabicyclo[3.2.1]oct-3-endo-yl}-5-[(1-ethylpropyl)amino]benzene-1,4-dicarboxamide]: the IC50 is under 500 nM.

As to `COc1cccc(C(=O)N[C@H]2C[C@H]3CC[C@@H](C2)N3c2ccc(C(=O)NCc3ccc(Cl)nc3)cn2)c1C` [N-[(6-chloropyridin-3-yl)methyl]-6-[3-endo-({[2-methyl-3-(methyloxy)phenyl]carbonyl}amino)-8-azabicycio[3.2.1]oct-8-yl]pyridine-3-carboxamide], the IC50 is under 500 nM.

`COc1cccc(C(=O)N[C@H]2C[C@H]3CC[C@@H](C2)N3c2ccc(C(=O)NCc3cccc(F)c3)cn2)c1C` [N-[(3-fluorophenyl)methyl]-6-[3-endo-({[2-methyl-3-(methyloxy)phenyl]carbonyl}amino)-8-azabicyclo[3.2.1]oct-8-yl]pyridine-3-carboxamide]: the IC50 was 1000 to 2000 nM.

`COc1cccc(C(=O)N[C@H]2C[C@H]3CC[C@@H](C2)N3c2ccc(C(=O)NCCCn3ccnc3)cn2)c1C` [N-[3-(1H-imidazol-1-yl)propyl]-6-[3-endo-({[2-methyl-3-(methyloxy)phenyl]carbonyl}amino)-8-azabicyclo[3.2.1]oct-8-yl]pyridine-3-carboxamide]: the IC50 is under 500 nM.

With `COc1cccc(C(=O)NC2CC3CCC(C2)N3c2ccc(C(=O)NCC3COC(C)(C)O3)cn2)c1C` (stereo not drawn) [N-[(2,2-dimethyl-1,3-dioxolan-4-yl)methyl]-6-[3-endo-({[2-methyl-3-(methyloxy)phenyl]carbonyl}amino)-8-azabicyclo[3.2.1]oct-8-yl]pyridine-3-carboxamide], the IC50 was 2000 to 10000 nM.

In turn, `CSc1cccc(C(=O)NC2CC3CCC(C2)N3c2ccc(C(=O)N[C@@H](C)c3ccc(N4CCN(C)CC4)cc3)cn2)c1C` (stereo partly drawn) [6-[3-endo-({[2-methyl-3-(methylthio)phenyl]carbonyl}amino)-8-azabicyclo[3.2.1]oct-8-yl]-N-{(1S)-1-[4-(4-methylpiperazin-1-yl)phenyl]ethyl}pyridine-3-carboxamide] gave an IC50 of 500 to 999 nM.

Regarding `CCNc1cc(C(=O)N[C@H]2C[C@H]3CC[C@@H](C2)N3c2ccc(C(C)=O)cn2)ccc1C(N)=O` [N4-[8-(5-acetylpyridin-2-yl)-8-azabicyclo[3.2.1]oct-3-endo-yl]-2-(ethylamino)benzene-1,4-dicarboxamide], the IC50 was under 500 nM.

For the molecule `Cc1cc(C(=O)NC2CC3CCC(C2)N3c2ccc(C(=O)N[C@@H](C)c3ccc(N4CCN(C)CC4)cc3)cn2)c(C)cc1C(N)=O` (stereo partly drawn) [2,5-dimethyl-N-(8-{5-[({(1S)-1-[4-(4-methylpiperazin-1-yl)phenyl]ethyl}amino)carbonyl]pyridin-2-yl}-8-azabicyclo[3.2.1]oct-3-endo-yl)benzene-1,4-dicarboxamide], the IC50 is under 500 nM.

Molecule `Cc1cc(C(N)=O)c(NCCC(F)(F)F)cc1C(=O)N[C@H]1C[C@H]2CC[C@@H](C1)N2c1ccc(C(=O)C2CC2)cn1` [N-{8-[5-(cyclopropylcarbonyl)pyridin-2-yl]-8-azabicyclo[3.2.1]oct-3-endo-yl}-2-methyl-5-[(3,3,3-trifluoropropyl)amino]benzene-1,4-dicarboxamide] had an IC50 of under 500 nM.

`CC(=O)c1ccc(N2[C@@H]3CC[C@H]2C[C@@H](NC(=O)c2ccc(C(N)=O)c(NCC(C)C)c2)C3)nc1` [N4-[8-(5-acetylpyridin-2-yl)-8-azabicyclo[3.2.1]oct-3-endo-yl]-2-[(2-methylpropyl)amino]benzefle-1,4-dicarboxamide] came in with an IC50 of under 500 nM.

Take `COc1cccc(C(=O)N[C@H]2C[C@H]3CC[C@@H](C2)N3c2ccc(C(=O)NCc3ccccc3)cn2)c1Br` [6-[3-endo-({[2-bromo-3-(methyloxy)phenyl]carbonyl}amino)-8-azabicyclo[3.2.1]oct-8-yl]-N-(phenylmethyl)pyridine-3-carboxamide]: the concentration for half-maximal inhibition (IC50) lay within 1000 to 2000 nM.

On to `CC[C@H](C)Nc1cc(C(=O)NC2CC3CCC(C2)N3c2ccc(C(C)=O)cn2)ccc1C(N)=O` (stereo partly drawn) [N4-[8-(5-acetylpyridin-2-yl)-8-azabicyclo[3.2.1]oct-3-endo-yl]-2-{[(1S)-1-methylpropyl]amino}benzene-1,4-dicarboxamide], for which the IC50 was under 500 nM.

Take `COc1cccc(C(=O)N[C@H]2C[C@H]3CC[C@@H](C2)N3c2ccc(C(=O)NCc3ccco3)cn2)c1C` [N-(furan-2-ylmethyl)-6-[3-endo-({[2-methyl-3-(methyloxy)phenyl]carbonyl}amino)-8-azabicyclo[3.2.1]oct-8-yl]pyridine-3-carboxamide]: the IC50 is under 500 nM.

Consider `Cc1cc(C(N)=O)c(NC(C)CC(F)(F)F)cc1C(=O)N[C@H]1C[C@H]2CC[C@@H](C1)N2c1ccc(C(=O)C2CC2)cn1` (stereo partly drawn) [N-{8-[5-(cyclopropylcarbonyl)pyridin-2-yl]-8-azabicyclo[3.2.1]oct-3-endo-yl}-2-methyl-5-[(3,3,3-trifluoro-1-methylpropyl)amino]benzene-1,4-dicarboxamide], for which the IC50 is under 500 nM.

With `CC[C@H](C)Nc1cc(C(=O)NC2CC3CCC(C2)N3c2ccc(C(=O)C3CC3)cn2)c(C)cc1C(N)=O` (stereo partly drawn) [N-{8-[5-(cyclopropylcarbonyl)pyridine-2-yl]-8-azabicyclo[3.2.1]oct-3-endo-yl}-2-methyl-5-{[(1S)-1-methylpropyl]amino}benzene-1,4-dicarboxamide], the IC50 is under 500 nM.

The molecule `COc1cccc(C(=O)N[C@H]2C[C@H]3CC[C@@H](C2)N3c2ccc(C(=O)NCCO)cn2)c1C` [N-(2-hydroxyethyl)-6-[3-endo-({[2-methyl-3-(methyloxy)phenyl]carbonyl}amino)-8-azabicyclo[3.2.1]oct-8-yl]pyridine-3-carboxamide] came in with a half-inhibitory concentration (IC50) of 2000 to 10000 nM.

For the molecule `CC(C)OCCNc1cc(C(=O)N[C@H]2C[C@H]3CC[C@@H](C2)N3c2ccc(C(=O)C3CC3)cn2)ccc1C(N)=O` [N4-{8-[5-(cyclopropylcarbonyl)pyridin-2-yl]-8-azabicyclo[3.2.1]oct-3-endo-yl}-2-({2-[(1-methylethyl)oxy]ethyl}amino)benzene-1,4-dicarboxamide], the IC50 was under 500 nM.

As to `CC(=O)c1ccc(N2[C@@H]3CC[C@H]2C[C@@H](NC(=O)c2ccc(C(N)=O)c(NCCC(F)(F)F)c2)C3)nc1` [N4-[8-(5-acetylpyridin-2-yl)-8-azabicyclo[3.2.1]oct-3-endo-yl]-2-[(3,3,3-trifluoropropyl)amino]benzene-1,4-dicarboxamide], the IC50 is under 500 nM.

As to `CN1CCC(CCC(=O)c2ccc(N3[C@@H]4CC[C@H]3C[C@@H](NC(=O)c3ccc(C(N)=O)c(NCC5CC5)c3)C4)nc2)CC1` [2-[(cyclopropylmethyl)amino]-N4-(8-{5-[3-(1-methylpiperidin-4-yl)propanoyl]pyridin-2-yl}-8-azabicyclo[3.2.1]oct-3-endo-yl)benzene-1,4-dicarboxamide], the IC50 is under 500 nM.

In turn, `NC(=O)c1ccc(C(=O)N[C@H]2C[C@H]3CC[C@@H](C2)N3c2ccc(C(=O)C3CC3)cn2)cc1NC1CCCC1` displayed an IC50 of under 500 nM.

In the case of `CCC(CC)Nc1cc(C(=O)NC2CC3CCC(C2)N3c2ccc(C(=O)N[C@@H]3CCCN(C(C)C)C3)cn2)c(C)cc1C(N)=O` (stereo partly drawn) [5-[(1-ethylpropyl)amino]-2-methyl-N-{8-[5-({[(3R)-1-(1-methylethyl)piperidin-3-yl]amino}carbonyi)pyridin-2-yl]-8-azabicyclo[3.2.1]oct-3-endo-yl}benzene-1,4-dicarboxamide], the IC50 was under 500 nM.

For `COc1cccc(C(=O)N[C@H]2C[C@H]3CC[C@@H](C2)N3c2ccc(C(=O)NCCCN3CCCC3=O)cn2)c1C` [6-[3-endo-({[2-methyl-3-(methyloxy)phenyl]carbonyl}amino)-8-azabicyclo[3.2.1]oct-8-yl]-N-[3-(2-oxopyrrolidin-1-yl)propyl]pyridine-3-carboxamide], the IC50 was 500 to 999 nM.

As usually defined, the IC50 is the concentration that gives 50% inhibition. A high value points to weaker potency in that assay.
